Experimental data as given in PubChem BioAssay (NCI).
Where “and” joins values, the source holds several entries; their conditions need not be identical. Equal entries are not always repeated.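 Method: 48-hour compound exposure of cells in 96-well plates, five concentrations, linear interpolation of endpoints. Here, GI50 denotes the concentration required for 50% inhibition of growth. TGI is the concentration that stops growth completely.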

Test system: MDA-MB-468 breast
Assay: inhibition of tumour cell growth, NCI panel, 48 h

## Nc1cc2c(cc1Br)[nH]c(=O)c1ccccc12
  GI50: 1.21 µM
  TGI: 5.41 µM

## C#CCOc1cccc(Nc2ncnc3c(NC(=O)C=C)cccc23)c1
  GI50: 4.91 µM
  TGI: 25.4 µM

## COc1ccc(/C(C)=C(\c2ccc(OCCN3CCCCCC3)cc2)c2ccc(OC(=O)C3CCCCC3)cc2)cc1
  GI50: 0.737 µM
  TGI: 2.84 µM

## COc1ccc(-c2nc(-c3cc(OC)cc(OC)c3)[nH]c2-c2ccc(OC)cc2)cc1
  GI50: 2.78 µM
  TGI: > 100 µM

## O=C(Nc1cc(Nc2ncccc2-c2ncnc3nc[nH]c23)ccc1F)c1cc(C(F)(F)F)cc(C(F)(F)F)c1
  GI50: 3 µM
  TGI: 8.36 µM

## CC(C)(C)[Si](C)(C)OC1[C@@H](CNC(=O)NC(=O)CCl)O[C@@H](n2cnc3c(N)ncnc32)[C@H]1O[Si](C)(C)C(C)(C)C (stereo partly specified)
  GI50: 0.802 µM
  TGI: 1.71 µM

## CC(C)c1[nH]nc2c1N=C(c1ccccc1Cl)c1cc([N+](=O)[O-])ccc1N2
  GI50: 2.93 µM
  TGI: 15.7 µM

## CCN(CC)CCCCCCNc1cccc2cc(Br)cnc12
  GI50: 1.96 µM
  TGI: 4.46 µM

## O=C(NCc1ccc(Cn2c(=O)sn(-c3ccccc3)c2=O)cc1)OCc1ccc2cccc(O)c2n1
  GI50: 0.552 µM
  TGI: 2.14 µM

## ClCCN(CCCl)c1ccc(CNc2ccccc2)cc1
  GI50: 2.14 µM
  TGI: 23.4 µM

## CN(C)C(=S)SSC(=S)N(C)C
  GI50: 17.1 µM
  TGI: 37.5 µM

## N=C(N)c1ccc(-c2ccc(-c3cccs3)s2)cc1
  GI50: 0.0564 µM
  TGI: 1.15 µM

## CC1(C)CN=C(NN=C(/C=C/c2ccc(C(F)(F)F)cc2)/C=C/c2ccc(C(F)(F)F)cc2)NC1
  GI50: 1.28 µM
  TGI: 2.72 µM

## COc1cc(/C=C\c2cc(OC)c(OC)c(OC)c2)cc(N/C=C\C(=O)c2c[nH]c3ccccc23)c1OC
  GI50: 1.28 µM
  TGI: 3.66 µM

## COc1ccc(-c2ccc3c(N4CCOC[C@@H]4C)nc(N4CCOC[C@@H]4C)nc3n2)cc1CO
  GI50: 0.00533 µM and 0.018 µM
  TGI: 0.0199 µM and 0.195 µM

## COc1cc2c(Nc3cc(Cl)c(OC)c(Cl)c3)c(C#N)cnc2cc1OCCCN1CCN(C)CC1
  GI50: 0.267 µM
  TGI: 1.64 µM

## CCCCCCCCCCNC(=O)CI
  GI50: 2.14 µM
  TGI: 4.86 µM

## O=C(/C(=C\c1c(-c2ccccc2)[nH]c2ccccc12)S(=O)(=O)c1ccccc1)c1ccccc1
  GI50: 4.18 µM
  TGI: > 100 µM

## Cc1cc(N/N=C/c2ccccn2)nc2ccccc12
  GI50: 0.252 µM
  TGI: 2.6 µM

## O=C(NNc1nc2cc(F)cc(F)c2n2cccc12)c1ncccn1
  GI50: 0.59 µM
  TGI: 3.79 µM

## Cc1ccc(OCCOCCOCCOCCOc2ccc(C)n(O)c2=S)c(=S)n1O
  GI50: < 0.0174 µM
  TGI: 5.33 µM

## CC(C)[C@H](O)C(=O)N[C@@H](C)C(=O)N[C@@H]1C(=O)N(C)CCc2ccccc21
  GI50: > 100 µM
  TGI: > 100 µM

## COc1ccc(-c2nn(-c3cccc(Cl)c3)cc2-c2cc(-c3ccccc3)[nH]c(=O)c2C#N)cc1
  GI50: 1.55 µM
  TGI: 7.51 µM

## C=CC(=O)N1CN(C(=O)C=C)CN(C(=O)C=C)C1
  GI50: 1.46 µM
  TGI: 3.4 µM

## N[C@H](CCC(=O)N[C@@H](Cc1c[nH]c2ccccc12)C(=O)O)C(=O)O
  GI50: > 100 µM
  TGI: > 100 µM

## O=C1Nc2ccccc2/C1=C1\CCc2cc(O)ccc21
  GI50: 3.33 µM
  TGI: > 21.8 µM

## Nc1cc(Br)c(-c2nnc(CCC(=O)c3nc4ccccc4[nH]3)o2)c(Br)c1
  GI50: 1.93 µM
  TGI: 6.97 µM

## OC(c1cc(-c2ccc(C(F)(F)F)cc2)nc(C(F)(F)F)c1)C1CCCCN1 (stereo unspecified)
  GI50: 1.61 µM and 1.5 µM
  TGI: 3.33 µM and 2.83 µM

## N#CCCN1C/C(=C/c2ccc(Br)cc2)C(=O)/C(=C/c2ccc(Br)cc2)C1
  GI50: 1.5 µM
  TGI: 3.62 µM

## NNCCc1ccc(NC(=O)CCCc2ccc(C(=O)Nc3ccccc3N)cc2)cc1
  GI50: 10.9 µM
  TGI: 40.1 µM

## c1ccc2c(c1)[nH]c1c2cc[n+]2cc3c(cc12)CCCC3
  GI50: 1.12 µM
  TGI: 2.98 µM

## COc1ccc(-c2cnnn2-c2nonc2-n2cccc2)cc1
  GI50: 0.13 µM
  TGI: 0.721 µM

## Cc1cc(Nc2nc(-c3cn(-c4ccc(Cl)cc4)nn3)nc3ccccc23)n[nH]1
  GI50: 10.4 µM
  TGI: 30.5 µM
